Assay results from ChEMBL document CHEMBL4725308, “MK-5204: An orally active β-1,3-glucan synthesis inhibitor” (Bioorg Med Chem Lett, 2020).
In brackets after ≈: the same amount, converted by molar mass. One block for each compound: values may come before it.

Assays:
[1] = test system: Aspergillus fumigatus; assay: Antifungal activity against Aspergillus fumigatus MF5668 infected in DBA/2N mouse assessed as mouse survival at 1.56 mg/kg, ip bid administered for 7 days starting from 30 mins post infection and measured up to 21 days relative to control; format: functional; conditions: 168 h, time 7 day
[2] = Clearance in rat; format: ADME; conditions: in vivo
[3] = test system: Aspergillus fumigatus; assay: Antifungal activity against Aspergillus fumigatus MF5668 infected in DBA/2N mouse assessed as mean survival days at 12.5 mg/kg, ip bid administered for 7 days starting from 30 mins post infection and measured up to 21 days relative to control; format: functional; conditions: time 7 day
[4] = Half life in dog; format: ADME, Canis lupus familiaris; conditions: in vivo
[5] = test system: Candida albicans; assay: Antifungal activity against Candida albicans MY1055 infected in DBA/2 mouse model assessed as log change in colony forming units in kidney at 25 mg/kg, po bid for 2 days and measured after 4 days by TOKA; format: functional; conditions: time 2 day
[6] = test system: Candida albicans; assay: Antifungal activity against Candida albicans MY1055 infected in DBA mouse model assessed as log change in colony forming units in kidney at 12.5 mg/kg, po bid for 2 days and measured after 4 days by TOKA; format: functional; conditions: time 2 day
[7] = Half life in rhesus monkey; format: ADME, Macaca mulatta; conditions: in vivo
[8] = test system: Candida albicans; assay: Antifungal activity against Candida albicans MY1055 infected in DBA/2N mouse model assessed as mouse survival at 12.5 mg/kg, ip bid for 7 days and measured post-last dose by TOKA relative to control; format: functional; conditions: 168 h, time 7 day
[9] = Oral bioavailability in rat; format: ADME, organism-based; conditions: in vivo
[10] = Oral bioavailability in dog; format: ADME, organism-based, Canis lupus familiaris; conditions: in vivo
[11] = test system: Aspergillus fumigatus; assay: Antifungal activity against Aspergillus fumigatus MF5668 infected in DBA/2N mouse assessed as mouse survival at 3.125 mg/kg, ip bid administered for 7 days starting from 30 mins post infection and measured up to 21 days relative to control; format: functional; conditions: 168 h, time 7 day
[12] = Half lie in mouse; format: ADME, organism-based; conditions: in vivo
[13] = test system: Aspergillus fumigatus; assay: Antifungal activity against Aspergillus fumigatus MF5668 infected in DBA/2N mouse assessed as mean survival days at 3.125 mg/kg, ip bid administered for 7 days starting from 30 mins post infection and measured up to 21 days relative to control; format: functional; conditions: time 7 day
[14] = Oral bioavailability in rhesus monkey; format: ADME, organism-based, Macaca mulatta; conditions: in vivo
[15] = test system: Aspergillus fumigatus; assay: Antifungal activity against Aspergillus fumigatus MF5668 assessed as fungal growth inhibition measured after 24 hrs by liquid microdilution method; format: functional; conditions: read-out: MEC
[16] = test system: Candida albicans; assay: Antifungal activity against Candida albicans MY1055 infected in DBA/2 mouse model assessed as log change in colony forming units in kidney at 6.5 mg/kg, po bid for 2 days and measured after 4 days by TOKA; format: functional; conditions: time 2 day
[17] = test system: Candida albicans; assay: Antifungal activity against Candida albicans MY1055 infected in DBA/2N mouse model assessed as mouse survival at 25 mg/kg, po bid for 7 days and measured post-last dose by TOKA relative to control; format: functional; conditions: 168 h, time 7 day
[18] = Clearance in mouse; format: ADME, organism-based; conditions: in vivo
[19] = Half life in rat; format: ADME; conditions: in vivo
[20] = test system: Aspergillus fumigatus; assay: Antifungal activity against Aspergillus fumigatus MF5668 infected in DBA/2N mouse assessed as mouse survival at 12.5 mg/kg, ip bid administered for 7 days starting from 30 mins post infection and measured up to 21 days relative to control; format: functional; conditions: 168 h, time 7 day
[21] = Oral bioavailability in mouse; format: ADME, organism-based; conditions: in vivo
[22] = test system: Aspergillus fumigatus; assay: Antifungal activity against Aspergillus fumigatus MF5668 infected in DBA/2N mouse assessed as mean survival days at 6.25 mg/kg, ip bid administered for 7 days starting from 30 mins post infection and measured up to 21 days relative to control; format: functional; conditions: time 7 day
[23] = test system: Candida albicans; assay: Antifungal activity against Candida albicans MY1055 assessed as fungal growth inhibition measured after 24 hrs in presence of mouse serum by liquid microdilution method; format: functional
[24] = Clearance in dog; format: ADME, Canis lupus familiaris; conditions: in vivo
[25] = test system: Candida tropicalis; assay: Antifungal activity against Candida tropicalis MY1012 assessed as fungal growth inhibition; format: functional
[26] = test system: Aspergillus fumigatus; assay: Antifungal activity against Aspergillus fumigatus MF5668 infected in DBA/2N mouse assessed as mouse survival at 6.25 mg/kg, ip bid administered for 7 days starting from 30 mins post infection and measured up to 21 days relative to control; format: functional; conditions: 168 h, time 7 day
[27] = test system: Nakaseomyces glabratus; assay: Antifungal activity against Candida glabrata MY1381 assessed as fungal growth inhibition; format: functional
[28] = test system: Candida albicans; assay: Antifungal activity against Candida albicans MY1055 assessed as fungal growth inhibition measured after 24 hrs by liquid microdilution method; format: functional
[29] = Clearance in rhesus monkey; format: ADME, Macaca mulatta; conditions: in vivo
[30] = test system: Pichia kudriavzevii; assay: Antifungal activity against Candida krusei ATCC 6258 assessed as fungal growth inhibition; format: functional
[31] = test system: Candida albicans; assay: Antifungal activity against Candida albicans MY1055 infected in DBA/2N mouse model assessed as mouse survival at 12.5 mg/kg, po bid for 7 days and measured post-last dose by TOKA relative to control; format: functional; conditions: 168 h, time 7 day
[32] = test system: Candida parapsilosis; assay: Antifungal activity against Candida parapsilosis ATCC 22019 assessed as fungal growth inhibition; format: functional; conditions: Lodderomyces parapsilosis
[33] = test system: Aspergillus fumigatus; assay: Antifungal activity against Aspergillus fumigatus MF5668 infected in DBA/2N mouse assessed as mean survival days at 1.56 mg/kg, ip bid administered for 7 days starting from 30 mins post infection and measured up to 21 days relative to control; format: functional; conditions: time 7 day
[34] = test system: Candida albicans; assay: Antifungal activity against Candida albicans MY1055 infected in DBA/2N mouse model assessed as mouse survival at 6.5 mg/kg, po bid for 7 days and measured post-last dose by TOKA relative to control; format: functional; conditions: 168 h, time 7 day
[35] = test system: Clavispora lusitaniae; assay: Antifungal activity against Clavispora lusitaniae MY1396 assessed as fungal growth inhibition; format: functional
[36] = test system: Candida albicans; assay: Antifungal activity against Candida albicans MY1055 infected in DBA/2N mouse model administered for 7 days by TOKA; format: functional; conditions: MY1055, 168 h, time 7 day
[37] = Inhibition of beta-1,3-glucan synthase in Candida albicans MY1055 microsomal membrane using UDP-[3H]-glucose as substrate incubated for 2 hrs in presence of UTP by radioactivity-based assay; format: cell membranes

SMILES: CC(C)[C@@H](C)[C@@]1(C)CC[C@]2(C)[C@H]3CC[C@@H]4[C@@]5(COC[C@]4(C)[C@@H](OC[C@](C)(N)C(C)(C)C)[C@H](n4ncnc4C(N)=O)C5)C3=CC[C@@]2(C)[C@@H]1C(=O)O
survival at 1.56 mg/kg [1]: 0% | clearance [2]: 6 mL/min/kg | MSD [3]: 14.4 days | half-life [4]: 738 min | Activity [5]: -2.2 log CFU | Activity [6]: -2.5 log CFU | half-life [7]: 510 min | survival at 12.5 mg/kg [8]: 100% | bioavailability [9]: 17% | bioavailability [10]: 35% | survival at 3.125 mg/kg [11]: 10% | half-life [12]: 306 min | MSD [13]: 7.3 days | bioavailability [14]: 12% | minimal effective concentration [15]: < 0.03 µg/mL | Activity [16]: -1.5 log CFU | survival at 25 mg/kg [17]: 80% | clearance [18]: 11 mL/min/kg | half-life [19]: 330 min | survival at 12.5 mg/kg [20]: 60% | bioavailability [21]: 12% | MSD [22]: 12.5 days | MIC [23]: 2 µg/mL | clearance [24]: 2 mL/min/kg | MIC [25]: 0.5 µg/mL (≈ 0.718 µM) | survival at 6.25 mg/kg [26]: 40% | MIC [27]: 0.125 µg/mL (≈ 0.18 µM) | MIC [28]: 0.06 µg/mL (≈ 0.0862 µM) | clearance [29]: 4 mL/min/kg | MIC [30]: 1 µg/mL (≈ 1.44 µM) | survival at 12.5 mg/kg [31]: 100% | MIC [32]: 0.06 µg/mL (≈ 0.0862 µM) | MSD [33]: 6.5 days | survival at 6.5 mg/kg [34]: 100% | MIC [35]: 0.125 µg/mL (≈ 0.18 µM) | ED99 [36]: 6.4 mg/kg | IC50 [37]: 3 ng/mL

bioavailability [21]: 7% | MIC [23]: 2 µg/mL | MIC [28]: < 0.03 µg/mL | IC50 [37]: 5 ng/mL
SMILES: CC(C)[C@@H](C)[C@@]1(C)CC[C@]2(C)[C@H]3CC[C@@H]4[C@@]5(COC[C@]4(C)[C@@H](OC[C@](C)(N)C(C)C)[C@H](n4ncnc4C(N)=O)C5)C3=CC[C@@]2(C)[C@@H]1C(=O)O
Activity [5]: -2.5 log CFU | Activity [6]: -0.2 log CFU | minimal effective concentration [15]: < 0.03 µg/mL | Activity [16]: -0.9 log CFU

bioavailability [21]: 16% | MIC [23]: 8 µg/mL | MIC [28]: 0.25 µg/mL (≈ 0.352 µM) | IC50 [37]: 9 ng/mL
SMILES: CC(C)[C@@H](C)[C@@]1(C)CC[C@]2(C)[C@H]3CC[C@@H]4[C@@]5(COC[C@]4(C)[C@@H](OC[C@](C)(N)C(C)C)[C@H](n4ncnc4C(=O)N(C)C)C5)C3=CC[C@@]2(C)[C@@H]1C(=O)O
Activity [5]: -2.4 log CFU | Activity [6]: -1.3 log CFU | minimal effective concentration [15]: < 0.03 µg/mL | Activity [16]: -1 log CFU

bioavailability [21]: 33% | MIC [23]: 16 µg/mL | MIC [28]: 0.5 µg/mL (≈ 0.691 µM) | IC50 [37]: 7 ng/mL
SMILES: CCCNC(=O)c1ncnn1[C@@H]1C[C@@]23COC[C@@](C)([C@@H]2CC[C@H]2C3=CC[C@@]3(C)[C@H](C(=O)O)[C@@](C)([C@H](C)C(C)C)CC[C@]23C)[C@H]1OC[C@](C)(N)C(C)C
Activity [5]: -2.2 log CFU | Activity [6]: -1.6 log CFU | minimal effective concentration [15]: < 0.03 µg/mL | Activity [16]: -1.1 log CFU

bioavailability [21]: 17% | MIC [23]: 16 µg/mL | MIC [28]: 0.25 µg/mL (≈ 0.352 µM) | IC50 [37]: 11 ng/mL
SMILES: CCN[C@@](C)(CO[C@H]1[C@H](n2ncnc2C(N)=O)C[C@@]23COC[C@@]1(C)[C@@H]2CC[C@H]1C3=CC[C@@]2(C)[C@H](C(=O)O)[C@@](C)([C@H](C)C(C)C)CC[C@]12C)C(C)C
Activity [5]: -1.8 log CFU | Activity [6]: -1.1 log CFU | minimal effective concentration [15]: < 0.03 µg/mL | Activity [16]: -1.1 log CFU

bioavailability [21]: 33% | MIC [23]: 8 µg/mL | MIC [28]: 0.5 µg/mL (≈ 0.697 µM) | IC50 [37]: 2 ng/mL
SMILES: CC(C)[C@@H](C)[C@@]1(C)CC[C@]2(C)[C@H]3CC[C@@H]4[C@@]5(COC[C@]4(C)[C@@H](OC[C@](C)(N)C(C)C)[C@H](n4ncnc4Br)C5)C3=CC[C@@]2(C)[C@@H]1C(=O)O
Activity [5]: -2.3 log CFU | Activity [6]: -1.7 log CFU | minimal effective concentration [15]: < 0.03 µg/mL | Activity [16]: -0.2 log CFU

bioavailability [21]: 10% | MIC [23]: 8 µg/mL | MIC [28]: 0.25 µg/mL (≈ 0.367 µM) | IC50 [37]: 8 ng/mL
SMILES: CC(C)[C@@H](C)[C@@]1(C)CC[C@]2(C)[C@H]3CC[C@@H]4[C@@]5(COC[C@]4(C)[C@@H](OC[C@H](N)C(C)(C)C)[C@H](n4ncnc4C(N)=O)C5)C3=CC[C@@]2(C)[C@@H]1C(=O)O
Activity [5]: -2.6 log CFU | Activity [6]: -1.7 log CFU | minimal effective concentration [15]: < 0.03 µg/mL | Activity [16]: -1.9 log CFU
